This is an account of results in patent publication US20230391765A1, “HETEROBIFUNCTIONAL COMPOUNDS AS DEGRADERS OF ENL” (ICAHN SCHOOL OF MEDICINE AT MOUNT SINAI, priority 2020, published 2023).

For assay [1], the target named is T1, ENL (Homo sapiens, UniProt Q03111).
T1 construct: Cells were lysed and expression of endogenous ENL was assessed by Western blot analysis; host or cells: MV4;11
T1 sequence (Q03111 1-559): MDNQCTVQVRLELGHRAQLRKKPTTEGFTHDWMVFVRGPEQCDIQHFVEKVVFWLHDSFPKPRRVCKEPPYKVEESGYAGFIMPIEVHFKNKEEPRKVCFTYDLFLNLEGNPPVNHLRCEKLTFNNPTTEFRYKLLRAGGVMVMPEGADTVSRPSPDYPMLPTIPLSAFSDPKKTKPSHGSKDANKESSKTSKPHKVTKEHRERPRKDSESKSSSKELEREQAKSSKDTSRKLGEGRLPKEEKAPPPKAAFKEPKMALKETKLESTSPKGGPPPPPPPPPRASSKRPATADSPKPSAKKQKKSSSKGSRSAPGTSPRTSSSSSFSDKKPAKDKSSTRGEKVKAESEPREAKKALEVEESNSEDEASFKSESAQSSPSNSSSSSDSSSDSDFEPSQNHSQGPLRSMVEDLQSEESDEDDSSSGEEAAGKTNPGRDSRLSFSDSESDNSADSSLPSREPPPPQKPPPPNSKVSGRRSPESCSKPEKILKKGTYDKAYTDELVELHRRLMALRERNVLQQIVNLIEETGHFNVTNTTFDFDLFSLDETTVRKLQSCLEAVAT
Nature of the assay: Western blot of ENL protein levels in MOLM13 cells. It is filed as cell-based. A digest of the protocol:
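Leukemia cells (MOLM13, MV4;11, Jurkat) treated with degraders in DMSO at 0–10 μM for 6 h or 24 h, or at 4 μM (MV4;11) / 8 μM (MOLM13) over 12–36 h. ENL levels read by Western blot of total lysates, GAPDH/β-actin loading controls; DMSO vehicle control.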

Assay [2] has as its system ENL target genes. Kind of assay: RT-qPCR of ENL target genes in MOLM13 cells. The conditions noted are these: MOLM13 cells, 0.5, 1, 2, 4 and 8 μM for 24 h. The format is cell-based. As to the method: MOLM13 cells were treated with LQ076-122 (FIG. 14A) and LQ081-108 (FIG. 14B) at 0.5, 1, 2, 4, and 8 μM for 24 h. […] RT-qPCR analysis was performed to detect the mRNA levels of selected ENL target genes.
Total RNA was extracted using the RNeasy Plus kit (Qiagen) and reverse-transcribed using the iScript cDNA Synthesis kit (Bio-Rad). RT-qPCR was performed using the Power SYBR Green PCR Master Mix (Applied Biosystems) on the CFX96 Real-Time PCR system (Bio-Rad). Gene expressions were calculated following normalization to 18s rRNA amounts using the comparative cycle threshold (Ct) method.

Assay [3] concerns the target T1, ENL. Kind of assay: Western blot of ENL protein levels in MV4; 11 cells. It is filed as cell-based. A digest of the protocol:
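MV4;11 cells treated versus DMSO at 1 and 10 μM for 24 h or 6 h, or at 0.3-30 μM for 24 h; time course at 4 μM over 12-36 h. Proteasome dependence tested with 1 μM degrader ± 1 μM MG132 for 6 h. ENL (and GAS41) levels in total lysates assessed by Western blot with GAPDH/β-actin loading controls.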

Assay [4] has as its system MV4; 11-Luc cells. Nature of the assay: MV4; 11 disseminated xenograft model, bioluminescence imaging. Conditions: NSG mice with MV4, 100 mg/kg twice daily IP, three cycles (4 treatment days, 2 resting days). It is filed as in vivo. As to the method: Immuno-deficient NSG mice were irradiated and transplanted with 5×10^5 MV4; 11-Luc cells through tail-vein injections. Ten days after transplantation, mice (n=5) were treated with 100 mg/kg LQ076-122 or vehicle twice daily through IP injection in cycles. Each cycle contains 4 treatment days followed by 2 resting days. Day 0 is the time that the treatment started. Leukemia progression was monitored by bioluminescence imaging at different time points upon LQ076-122 or vehicle treatment (FIG. 18A). The mean radiances of bioluminescence signal were quantified in FIG. 18B.
Immunodeficient NOD.Cg-Prkdc^scidIl2rg^tm1wil/SzJ (NSG) mice at 6-8 weeks of age were produced at the Van Andel Institute Vivarium and Transgenic Core using breeders purchased from the Jackson laboratory. Mice were pretreated with acidified water and antibiotics for a week before a sublethal dose of total body irradiated (2 Gy). Then mice were transplanted with 0.5×10^6 MV4; 11-Luc cells through tail-vein injection. ENL degrader treatment was started ten days after transplantation with the successful engraftment confirmed by bioluminescence imaging. Mice were randomly assigned to two groups (n=5) and treated with IP injections of either ENL degrader LQ076-122 (100 mg/kg, twice daily) or vehicle. […] Leukemia progression in each animal was monitored by bioluminescence imaging after each treatment cycle. […]

As to `Cc1ncsc1-c1ccc(CNC(=O)[C@@H]2C[C@@H](O)CN2C(=O)[C@@H](NC(=O)CCCCCCCCCCNC(=O)c2ccc(C(=O)Nc3ccc4[nH]c(CN5CCC[C@@H]5C)nc4c3)cc2)C(C)(C)C)cc1` [LQ076-122, N^1-(11-(((S)-1-((2S,4R)-4-hydroxy-2-((4-(4-methylthiazol-5-yl)benzyl)carbamoyl)pyrrolidin-1-yl)-3,3-dimethyl-1-oxobutan-2-yl)amino)-11-oxoundecyl)-N^4-(2-(((S)-2-methylpyrrolidin-1-yl)methyl)-1H-benzo[d]imidazol-5-yl)terephthalamide], the “reduction of ENL protein levels” value is “reduced ENL protein levels in a concentration-dependent manner” in assay [1] (0-8 μM for 24 h); “reduced ENL protein levels in a concentration-dependent manner” in assay [3] (11 cells, 0-8 μM for 24 h); “effective in reducing ENL protein levels” in assay [3] (11 cells, 10 μM, 24 h); “reduced ENL protein levels in a concentration- and time-dependent manner” in assay [3] (11 cells, 0.3, 1, 3 and 10 μM for 12 and 24 h). The “reduction of ENL protein levels, time course” value is on record as “reduced ENL protein levels in a time-dependent manner” in assay [1] (8 μM for 12, 16, 20, 24 and 36 h); “reduced ENL protein levels in a time-dependent manner” in assay [3] (11 cells, 4 μM for 12, 16, 20, 24 and 36 h). In assay [2], the “ENL target gene expression (mRNA levels)” value is reported as “reduced ENL target gene expression in a concentration-dependent manner”. The “reduction of ENL protein level” value in assay [3] (11 cells, 0.3, 1, 3, 10 and 30 μM for 24 h) is reported as “selectively reduced the ENL protein level”. In addition, the leukemia progression entry in assay [4] is reported as “significantly inhibited leukemia progression”.
